Holding throughout (format): cell-based
One data set has as its system Namalwa cells. The experiment in a line: CellTiter-Glo cell viability, Namalwa cells. The settings on record: co-dosed 1:1 with CRBN ligand 8047, Namalwa, 72 h, 10 nM-10 μM. The procedure: CellTiter-Glo® 2.0 Cell Viability Assay (Promega) was carried out following the manufacturer's recommendations. Cells were seeded at a density of 1000 cells/well in a white 96 well plates (Corning, #3917) in a total volume of 100 μl with respective monomers, combinations of BRD ligands together with E3 ligase ligands or vehicle control treatment. After a 72 h incubation, 100 ul of the CellTiter-Glo® substrate was added per well and luminescence was read on a Spectramax M5 (Molecular Devices). Dose-response curves were generated using Graphpad Prism software.
Namalwa cells (1×10^4) were treated for 72 hours with the compounds solubilized in DMSO. Compounds were added at 10 nM-10 μM each. Cellular viability was determined using the CellTiter-Glo® Luminescent Cell Viability Assay (Promega) described above. FIG. 56 depicts the CURE-PRO-mediated loss of cellular viability for the BRD-E72 monomer (JQ1 derivatives comprising of boronic acid linkers), and the CRBN ligand, 8047 (a pomalidomide derivative comprising diol linkers) combined in a 1:1 ratio.
In general terms: In ATP-based viability assays light output follows the ATP content of the culture.

The test system of the next data set is caspase 3/7. The experiment in a line: Caspase-Glo 3/7 assay, Namalwa cells. To be noted: 1:1 with CRBN ligand 8047, Namalwa, 24 h. The procedure: Caspase-glo® assay (Promega) was conducted following the manufacturer's recommendations. Cells were seeded at a density of 5000 cells/well in a white 96 well plates (Corning, #3917) in a total volume of 100 μl with respective monomers, combinations of BRD ligands together with E3 ligase ligands or vehicle control treatment. After a 24 h incubation, 100 μl of the […] substrate was added per well and luminescence was read on a Spectramax M5 (Molecular Devices).
Namalwa cells (5×10^4) were treated for 24 hours with the compounds solubilized in DMSO. FIG. 57 is a bar graph depiction of fold increase of apoptosis assessed via caspase 3/7 activity using the Caspase-Glo assay (Promega) described above.
Molm-13 (FIG. 76A) or Namalwa (FIG. 76B) cells (5×10^4) were treated for 24 hours with the compounds solubilized in DMSO in white 96 well plates (10 nM-10 μM solubilized in DMSO). FIG. 76 is a bar graph depiction of fold increase of apoptosis assessed via caspase 3/7 activity using the Caspase-Glo assay (Promega) described above.

The target of data set [1] is T1, BRD4 (Homo sapiens, UniProt O60885). The experiment in a line: Summary of BRD4 degradation by CURE-PRO pairs, estimated from Western Blot or WES. On the set-up: endogenous in cells. To be noted: Table 1, aryl-boronic acid BRD4 ligand + 8047. Summed up:
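Degradation read-out from immunoblot with ECL, or WES capillary electrophoresis with HRP detection, of RIPA lysates. Cells (Namalwa, Ramos, HeLa, MCF7, HT29 or HCT116) were exposed to DMSO-solubilized compounds for 24 h; a check mark marks 30% to 70% or higher degradation.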

Data set [2] deals with T1, BRD4. The experiment in a line: CURE-PRO-mediated BRD4 degradation in HeLa cells, Western blot. The settings on record: 24 h. On the set-up: endogenous in cells; host or cells: HeLa. An outline of the steps:
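HeLa cells (2.5×10^6) treated 24 h with DMSO-solubilized compounds, degrader pairs combined 1:1, at 1 nM-1 μM, 1-10 μM, 10 μM or 10 and 100 μM each depending on series. RIPA lysates (10-20 μg protein) run on SDS-PAGE and immunoblotted for BRD4 with ECL detection.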
On the technique in general: A western blot detects proteins with antibodies after separation by electrophoresis.

Data set [3] concerns the target T1, BRD4. In words: CURE-PRO-mediated BRD4 degradation in HeLa cells, WES capillary electrophoresis (ProteinSimple). On the set-up: endogenous in cells; host or cells: HeLa. The procedure:
All cell lines were purchased from ATCC or DSMZ and grown at 37° C. with 5% CO2. Human HeLa cells were cultured in complete growth medium (Dulbecco's modified Eagle's medium (DMEM) supplemented with 10% FBS); MCF7 cells were cultured in complete growth medium (Dulbecco's modified Eagle's medium (DMEM) supplemented with 10% FBS and 0.01 mg/ml human recombinant insulin (Sigma Aldrich); Namalwa and Ramos cells were cultured in complete growth medium (RPMI 1640 medium supplemented with 10% FBS); HCT116 and HT29 cells were cultured in complete growth medium (McCoy's 5a Medium supplemented with 10% FBS). For cellular degradation of BRD4 studies cells were seeded in a 12-well plate at 70-80% confluency, allowed to attach overnight, and incubated with the indicated compounds for the indicated time. When indicated, a 15-minute pretreatment with 10 μM pomalidomide, 10 μM VHL298, 10 μM Nutlin3a, 1 μM MG-132 or 1 μM Carfilzomib was performed before the addition of CURE-PROs. For washout studies, after CURE-PRO treatment, media was aspirated and incubated with complete medium for the indicated time before lysis.
WES Simple analysis was performed on WES system (ProteinSimple-Biotechne) according to the manufacturer's instructions. Total protein concentrations of cell lysates were determined by the Pierce BCA kit (Thermo Fisher). 3 μL of 0.3 μg/μL of the protein lysate was loaded onto a 12- to 230-kDa WES assay plate (ProteinSimple) where 300 nL sample was withdrawn through a capillary, subjected to electrophoretic separation of proteins by size, and followed by the simultaneous, HRP-based detection of proteins using the Anti-Rabbit Detection Module (Proteinsimple: #DM-001). The electropherograms were checked then the automatic peak detection was manually corrected if it was required.
HeLa cells (2.5×10^6) were treated for 4-24 hours with the compounds solubilized in DMSO. After 4 hours, indicated points were washed and cells were left in full growth media. Compounds were added at 10 μM each. Standardized protein samples were electrophoresed and imaged as described in the WES ProteinSimple section above. FIGS. 44 and 45 depict the time-dependence of CURE-PRO-mediated BRD4 degradation with the BRD-E52 ligand (FIG. 44) and BRD-E72 ligand (FIG. 45), both JQ1 derivatives comprising of boronic acid linkers, and the CRBN binding ligands (8046, 8047, and 8066), pomalidomide derivatives comprising diol linkers.
HeLa cells (2.5×10^6) were treated for 24 hours with the compounds solubilized in DMSO. Compounds were added at 100 nM-10 μM each. Standardized protein samples were electrophoresed and imaged as described in the WES ProteinSimple section above. FIG. 46 depicts the concentration-dependence of CURE-PRO-mediated BRD4 degradation and the requirement for monomer dimerization.

The target in another data set is T2, CRBN (Homo sapiens, UniProt Q96SW2).
T2 construct: endogenous in cells; host or cells: HeLa
T2 sequence (Q96SW2 whole entry): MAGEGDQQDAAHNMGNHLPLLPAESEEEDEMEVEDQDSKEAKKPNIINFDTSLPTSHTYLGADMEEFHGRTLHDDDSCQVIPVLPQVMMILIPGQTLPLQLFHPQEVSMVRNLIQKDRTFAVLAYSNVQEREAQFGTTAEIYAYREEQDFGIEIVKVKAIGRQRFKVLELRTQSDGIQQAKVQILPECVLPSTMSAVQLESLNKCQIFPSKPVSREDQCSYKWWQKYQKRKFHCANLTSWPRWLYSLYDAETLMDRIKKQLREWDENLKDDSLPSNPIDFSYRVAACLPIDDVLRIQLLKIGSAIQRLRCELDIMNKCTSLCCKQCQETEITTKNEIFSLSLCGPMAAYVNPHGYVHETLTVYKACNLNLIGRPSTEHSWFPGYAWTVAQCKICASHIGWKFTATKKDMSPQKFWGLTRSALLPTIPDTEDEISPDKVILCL
The experiment in a line: CURE-PRO-mediated CRBN degradation in HeLa cells, Western blot. To be noted: 24 h. The procedure: Namalwa, Ramosm HeLa, MCF7, or HT29 HCT116 cells (2.5-3×10^6) were treated for 24 hours with the indicated compounds solubilized in DMSO. The cells were washed in ice-cold PBS and were then lysed in RIPA lysis buffer (150 mM NaCl, 5 mM EDTA, 1% NP-40, 0.5% sodium deoxycholate, 0.1% SDS, 50 mM Tris, pH 8.0.) with Roche protease inhibitor complete cocktail and phosphatase inhibitors (10 mM sodium fluoride, 10 mM sodium pyrophosphate, 1 mM sodium orthovanadate and 20 mM β-glycerophosphate). The total protein concentrations were determined by Bradford Protein Assay (Pierce) and 10-20 μg of protein was loaded onto 4-15% Tris-Glycine gradient gels (Biorad). After standard gel electrophoresis, the separated proteins were transferred to PVDF membrane by wet transfer. The immunoblots were then blocked for 1 hour in 5% skim milk in TBST or 5% BSA in TBST, according to manufacturer's instructions, before an overnight incubation at 4° C. with indicated antibodies and membranes. […] Signal was detected with ECL Western Blotting Substrate (Pierce) and X-ray film processed with a Konica SRX-101 X-ray film processor or captured by Bio-Rad's Chemidoc Imaging system. […]

The next data set has as its system HCT116 cells. In words: MTT toxicity of E3 ligase CURE-PRO monomers, HCT116 cells. To be noted: monomer alone, HCT116, 10 nM-30 μM, 24 h. The procedure:
(§1) CURE-PRO ligands for the E3 ubiquitin ligases were assessed for toxicity by MTT assays as described above. CURE-PRO monomers (10 nM-30 μM) were solubilized in DMSO and added in triplicate to cells (1×10^5 cells/well) seeded in 96 well plates on the previous day. HCT116 (FIG. 105A), MCF7 (FIG. 105B), and HT29 cells (FIG. 105C) were treated with the CURE-PRO monomers for 24 h.

Another data set concerns HT29 cells. In words: MTT toxicity of E3 ligase CURE-PRO monomers, HT29 cells. To be noted: monomer alone, HT29, 10 nM-30 μM, 24 h. The procedure: as §1

“Also recorded” adds a separate entry of the source.

With `CCNC(=O)C[C@@H]1N=C(c2ccc(Cl)cc2)c2cc(-c3cccc(B(O)O)c3)ccc2-n2c(C)nnc21` [BRD-E72, (3-((4S)-6-(4-chlorophenyl)-4-(2-(ethylamino)-2-oxoethyl)-1-methyl-4H-benzo[f][1,2,4]triazolo[4,3-a][1,4]diazepin-8-yl)phenyl)boronic acid], in the data set with Namalwa cells, the “loss of cellular viability versus monomer alone” value was “an increase in the loss of viability compared to monomer treatment alone; also recorded: marked loss in cell viability”. Further, the “caspase 3/7 activation” value in the data set with caspase 3/7 is on record as “demonstrates activation of caspase 3/7; also recorded: marked caspase activation”. On BRD4 [1], the “Degradation of BRD4, combination with CRBN ligand 8047” value is given as “√ (A black check mark indicates efficacy of 30% to 70% or higher protein degradation)”. At BRD4 [2] (1:1 with 8047, 10 μM, pomalidomide preincubated 15 min at equimolar concentration), the “BRD4 degradation after pomalidomide preincubation” value was “inhibition of CURE-PRO-mediated BRD4 degradation”. In addition, the BRD4 degradation entry on BRD4 [2] (BRD ligand with pomalidomide (no 8047), HeLa, 10 μM) was “failed to induce BRD4 degradation”; at BRD4 [2] (co-treated 1:1 with CRBN ligand 8047, HeLa, 10 μM each), “CURE-PRO-mediated degradation of BRD4”. Also, the “sustained BRD4 degradation after drugs are washed out” value on BRD4 [3] (co-dosed with 8047, 10 μM each, washed after 4 h) is listed as “up to 8 h”. Also, the “BRD4 degradation, time course” value on BRD4 [3] (co-dosed with CRBN ligand 8047, HeLa, 10 μM each, 4-24 h) is given as “marked BRD4 degradation after 4 h”.

`CC(C)(O)C(=O)C(=O)NCc1cccc2c1C(=O)N(C1CCC(=O)NC1=O)C2=O` (centres unmarked) [compound 8065]: at CRBN, the “concentrations at which CRBN degradation is noted” value was in the range of 10 to 100 µM.

Take `COc1ccc(C2=N[C@@H](c3ccc(Cl)cc3)[C@@H](c3ccc(Cl)cc3)N2C(=O)N2CCN(CCNC(=O)c3cccc(B(O)O)c3)C(=O)C2)c(OC(C)C)c1` [compound 8312, (3-((2-(4-((4S,5R)-4,5-bis(4-chlorophenyl)-2-(2-isopropoxy-4-methoxyphenyl)-4,5-dihydro-1H-imidazole-1-carbonyl)-2-oxopiperazin-1-yl)ethyl)carbamoyl)phenyl)boronic acid]: the “loss of viability (MTT)” value with HCT116 cells and in the data set with HT29 cells was “loss of viability only noted at higher concentrations (30 μM); also recorded: Toxicity at higher concentrations” each time.

The record behind these values is US20230285570A1, “THERAPEUTICALLY USEFUL CURE-PRO MOLECULES FOR E3 LIGASE MEDIATED DEGRADATION OF PROTEINS, AND METHODS OF MAKING AND USING THEM” (CORNELL UNIVERSITY, priority 2020, published 2023).
